This is an account of results in patent publication US10391150B2, “Treatments for migraine and related disorders” (The University of Chicago, priority 2011, dated 2019).

Like-named read-outs stand apart in the source and are kept apart here.

Test [1] has as its system myelin basic protein (MBP). The experiment in a line: Myelin basic protein (MBP) Western blot in hippocampal slice cultures. The format is cell-based, rat. To be noted: after SD; anti-CD4 for 24 hours at 7 days in vitro; GW 4869. On the procedure:
FIGS. 14A-14C. Reduced myelin basic protein (MBP) from SD depends on IFN-γ/T-cell activation and sphingomylinase. […] Thus, confirming involvement of T cells.
FIGS. 15A-15C. Physiological and transient elevation [i.e., phasic (see FIG. 1)] of IFN-γ triggers completely opposite effects. Transient (i.e., 500 U/mL×12 hours; all groups n≥5) exposure of hippocampal slice cultures was nutritive when assessed seven days later.
(In western blotting, separated proteins are transferred to a membrane and probed.)

The subject of test [2] is CA3 area evoked excitability. The format is cell-based, rat. The settings on record: H2O2 exposure. On the procedure: (§1) FIGS. 11a-11g IGF-1 decreased CA3 oxidative stress (OS) and its related hyperexcitability. […] Relative evoked excitability was determined as a sum of responses seen (e.g., responses of “2” and a “3” yielded an overall excitability score of five). […] (FIGS. 11d-e) Exemplary images of control (FIG. 11d) slice culture OS compared to increased slice OS induced by exposure to menadione (FIG. 11e). Calibration bar, 200 Dotted boxes indicate CA3 areas of interest used for relative OS quantifications (f and g).

Test [3] has as its system oxidative stress (OS) in hippocampal slice cultures. The experiment in a line: Oxidative stress (OS) by CellROX fluorescence in hippocampal slice cultures (CA3). The format is cell-based, rat. The settings on record: menadione exposure, without or with acute IGF-1. On the procedure: FIGS. 4A-4F Oxidative stress (OS) from SD and its reduction by IGF-1. (FIG. 4A) Normal cytoarchitecture of a hippocampal slice culture showing pyramidal neuron areas of CA1, dentate gyrus (DG), and the imaging zone for the inventors' work here (dotted line), CA3. (FIG. 4B) OS was measured using CellROX, a fixable fluorescent marker from Invitrogen. […] (FIG. 4D) This reduction versus control SD was significant (p<0.02; n=4 & 5). (FIG. 4E) CellROX can be used to measure relative OS in specific brain cell types.
FIGS. 9a-9f IGF-1 decreased oxidative stress from spreading depression. (FIG. 9a) NeuN immunohistochemical labeling of a hippocampal slice culture, for cytoarchitectural reference and to show the CA3 area of interest (dotted line box) used for quantification of oxidative stress (OS) via CellROX™ fluorescence intensity. (FIGS. 9b-c) Representative CellROX™-labeled hippocampal slices exposed to SD (FIG. 9b) and to 3-day IGF-1 incubation followed by spreading depression (SD) (FIG. 9c). Dotted line boxes illustrate CA3 areas of interest used for relative OS quantifications. […] Again, seven day treatments consisted of exposing cultures to IGF-1 for 12 hours a day for seven days. Note: IGF-1 exposure was continued for the additional 24 hour CellROX™ incubation. Scale bars=400 μm (a) and 200 μm (b and c). Comparisons between groups were made via ANOVA plus Holm-Sidak post hoc testing.
as §1
Oxidative stress from SD preferentially rises in astrocytes and microglia, with the latter effect mitigated by IGF-1 (FIG. 13). The inventors have recently shown that spreading depression (SD), the most likely cause of migraine aura and perhaps migraine (Lauritzen and Kraig, 2005), occurs with increased oxidative stress (OS) and that OS, in turn, increases SD susceptibility (Grinberg et al., 2012). Reactive oxygen and nitrogen species that cause OS have both autocrine and paracrine signaling capacities that can affect SD susceptibility by altering excitability (Kishida and Klann, 2007). Accordingly, the inventors looked for the cellular origin of OS from SD. Here the inventors used hippocampal slice cultures (HSC) to probe for cell-specific changes in OS from SD. SD was induced trans-synaptically in rat HSCs using bipolar electrical stimuli at the dentate gyrus (Pusic et al., 2011). Six SDs were induced every 7-9 min over an hr, followed by 24 hr incubation in CellROX™, a fixable fluorogenic probe for measuring OS (Grinberg et al., 2012). HSCs were then fixed in 10% buffered formalin phosphate. Other fixatives (PLP, 4% paraformaldehyde) prevented detection of OS change. Tissue was then labeled for neurons (anti-NeuN), oligodendrocytes (anti-RIP), astrocytes (anti-GFAP), or for microglia (isolectin GS-IB4).

The test system of test [4] is spreading depression (SD) in hippocampal slice cultures. The experiment in a line: Spreading depression (SD) threshold / susceptibility in hippocampal slice cultures. Type of test: cell-based, rat. The text has this:
FIGS. 2A-2E. […] (FIG. 2A) Experiments begin with determination of the current needed to maximize standard CA3 area field potential responses. Half-maximal intensity is then used to elicit CA3 area evoked field potentials from dentate gyrus bipolar electrical stimulation. This documents the normalcy of evoked synaptic responses between preparations. If a slice's field excitatory post synaptic potentials are not at least 3 mV, slices are discarded. Next, field potential trains (i) are noted to verify that preparations are healthy enough to follow 10 Hz stimulation (e.g., amplitudes of vertical deviations in fast potential records are similar) and the current needed to trigger SD (ii) is registered (Pusic and Kraig, 2010).
(FIG. 8a) Exemplary CA3 area evoked field potential. Experiments begin with establishment of the current intensity needed to evoke maximal field potential responses; stimuli of half-maximal intensity were then used to elicit subsequent field potentials. Only those cultures with CA3 pyramidal neuron post-synaptic responses of at least 3 mV were used for experiments. (FIG. 8b) CA3 response to dentate gyrus bipolar stimulation (10 pulses at 10 Hz, 500 μA) was used to elicit a spreading depression (SD), as shown in (FIG. 8c). (FIG. 8c) The spreading depression (SD) shown here was induced by the stimulation/response (arrow) shown in (FIG. 8b). […] Comparisons between groups made via Student's t-test.
The inventors induced SD trans-synaptically in rat HSC using electrical stimuli (100 μs pulses @ 10 Hz for 1 s) ranging from 1 to 10,000 nC in order to determine SD threshold in sham and experimental groups (Pusic et al., 2011). Results were based on n≥3-6/group. […] This insulin dose approximates the pharmacological levels seen in humans treated with nasal insulin.
Slice cultures were prepared and maintained as previously described (Mitchell et al., 2010a,). After 18 days in vitro (DIV), slice cultures were transferred to serum-free media that included additional calcium and magnesium. Cultures were screened at 21 DIV to ensure no pyramidal neuron death was present. Standard electrophysiological recordings were performed by placing a slice culture insert in a PDMI recording chamber with controlled temperature and pH (FIG. 1). The recording chamber was aerated with 5% CO2-balance air at 36° C. and media flowing at 1.2 mL/min or was held static around the slice culture insert. A recording electrode was placed at the CA3 pyramidal cell layer and a stimulating electrode was placed at the surface of the dentate gyrus. Recordings were initiated prior to placing the stimulating electrode on the culture to ensure no spreading depression was triggered as a result.
Studies began with determination of the current needed to maximize standard CA3 area field potential responses. This documented the normalcy of evoked synaptic responses between preparations. If a slice's field EPSPs were not at least 3-4 mV, it was discarded.
Next, trans-synaptically evoked SD was determined. Here, the inventors stimulated slices via the dentate gyrus with 100 μs pulses delivered at 10 Hz for 1 sec every 1-2 minutes at increasing μA current intensities until SD occurred.
Slice cultures are prepared, maintained, and induced to fire SD as previously described using trans-synaptic excitation of CA3, where SD is initiated (FIG. 4) (Kunkler et al., 2005; Pusic et al., 2011).

The test system of test [5] is SD in neocortex and hippocampus of anesthetized rat. The experiment in a line: SD threshold in vivo (0.5 M KCl injection) after nasal administration. To be noted: acutely after nasal treatment (IGF-1 150 μg; insulin 20 μg); control 1-8 nL. The protocol: Images show experimental setups for nasal administration and testing. (FIG. 7A) Nasal injection setup showing heat lamp and thermo-regulator that maintains temperature at 37° C. plus nose cone used to deliver isoflurane anesthesia. (FIG. 7B) Operator is shown administering nasal IGF-1 solution, which is performed in a fume hood to adequately vent isoflurane from nose cone. (FIG. 7C) Image illustrates standard electrophysiology setup. Anesthetized animal is placed into a standard electrophysiology holder and anesthesia maintained by a nose cone delivering 3% isoflurane in oxygen. Arterial oxygen saturation is monitored with a pulse-oximeter. Animals are warmed to 37.5° C. with a heating plate. SD is induced by progressively injecting larger volumes of 0.5 M KCl from an 8 μm diameter microelectrode. SD is registered with a second microelectrode used for DC recordings placed more caudally. After SD is evoked by a given injection pulse, the stimulating electrode is withdrawn and a volume re-injected under mineral oil. The diameter of the resultant KCl injection sphere is then measured off line using a compound microscope and the injection volume calculated. For example, in the above whole animal experiments it took 1-8 nL of 0.5 M KCl to evoke SD in control brain regions while after acute IGF-1 this amount rose to 67-109 nL. A day after IGF-1 treatment the volume needed to evoked SD was 34-48 nL. IFN-γ treatment required 338 nL of 0.5 M KCl a day after treatment and IL-11 required 67-200 nL.
Rats (FIGS. 6 and 7) are anesthetized with inhalational isoflurane and kept warm. While anesthetized, animals are placed in a supine position and 50 μL of sterile drug (i.e., IFN-γ, IGF-1, or IL-11) solution [or sterile saline vehicle (sham control)] is administered nasally by delivering 5 μL alternating between the left and right naris every 2 min over 20 minutes. Animals are given nasal drug treatments daily at the same time for 7 days before subsequent experiments. Doses for all 3 agents begin with the effective doses noted in our work using slice cultures (1×), then include others (0.1× and 10×). The inventors base this strategy on the fact that the effective culture dose for IGF-1 (40 ng/mL) closely approximates the dose used in vivo (143 μg/kg).
This approach was applied to measurement of SD threshold (FIG. 10) after treatment (FIG. 7) with nasally administered IGF-1 (150 μg), IL-11 (1 μg), IFN-γ (50,000 units), and insulin (20 μg). […] Resistance against SD was always greater in hippocampus compared to neocortex (n=4, controls; n=3, acutely after IGF-1; n=6, one day after IGF-1; n=6, one day after IL-11; n=6, one day after IFN-γ; and n=3, acutely after insulin).
Nasal administration followed by SD threshold evaluation in vivo. Vehicle or human recombinant IGF-1 (150 μg) is administered intranasally. SD threshold is established by injection of nanoliter volumes of 0.5 M KCl into neocortex or hippocampus (−2.0 mm from Bregma and 1.5 mm lateral from midline at either 750 μm or 2,800 μm into brain, respectively) using a thin-walled glass pipette and Picospritzer. Once a threshold is established, it is confirmed two more times, with an exemplary record from a vehicle-sham animal shown below. […] The diameter of the injected sphere is then measured using a compound microscope and used to calculate the injected volume, then moles of potassium. […]

Take `O=C(/C=C/c1ccc(/C=C/C(=O)Nc2ccc(C3=NCCN3)cc2)cc1)Nc1ccc(C2=NCCN2)cc1` [GW 4869, reference compound]: the “decline in MBP / demyelination after SD” value in test [1] is reported as “prevents the drop in MBP after SD”.
Take `OO` [hydrogen peroxide, reference compound]: the “evoked excitability versus control” value is listed as “increased slice excitability” in test [2] (without or with IGF-1 pretreatment for 3 days); “significantly increased evoked slice hyperexcitability” in test [2] (without or with acute IGF-1, 30 minutes after H2O2); “increase in evoked excitability” in test [2] (without or with acute IGF-1, 30 minutes after H2O2, listed as H2O2).
Regarding `CC1=CC(=O)c2ccccc2C1=O` [menadione, reference compound], in test [3], the “OS induced by menadione versus control” value is recorded as “significant increase in slice OS”.
For the molecule Insulin, in test [4] (3-day exposure, insulin 400 μg/mL), the “relative SD threshold versus control (control 1.00±0.20)” value turned out to be 22.60±9.60. Further, in test [4] (protection against SD in slice cultures), the “insulin dose needed for protective effect relative to IGF-1” value was 15 500 fold. Also, the “dose needed for protective effect against SD” value in test [4] (slice cultures) came out at 70 µM. Also, the “volume of 0.5 M KCl needed to evoke SD” value in test [5] is 8 to 34 nL.

B1: sTNFR1: soluble TNFR1 used for removal of TNF-α signaling (protein, UniProt P19438 30-211, looked up)
extracellular domain: LVPHLGDREKRDSVCPQGKYIHPQNNSICCTKCHKGTYLYNDCPGPGQDTDCRECESGSFTASENHLRHCLSCSKCRKEMGQVEISSCTVDRDTVCGCRKNQYRHYWSENLFQCFNCSLCLNGTVHLSCQEKQNTVCTCHAGFFLRENECVSCSNCKKSLECTKLCLPQIENVKGTEDSGTT
modifications: extracellular domain
notes: soluble TNFR1 used for removal of TNF-α signaling
As to B1, the “SD-induced increased susceptibility to SD” value in test [4] (after previous SD, soluble TNFR1 200 ng/mL after first day of SD, anti-CD4 0.1 mg/mL at 7 days for 24 hours) is listed as “abrogated”.
